Test results taken from patent publication EP4636093A1, “TARGETING MAPK-ERK PATHWAY FOR ENHANCING NUCLEIC ACID DELIVERY” (priority 2024, dated 2025).
Where two headings read alike, the source gives them in different places.

Key:
[1] = tested on: T cells; type: cell-based, Human; settings: for increase in CAR expression: with vs without 400 nM deucravacitinib
[2] = tested on: human T lymphocytes; type: cell-based; settings: AAV6 (GFP); 20 µM Vx-11e compared to untreated cells; average, three donors

With `Cc1cnc(Nc2ccc(F)cc2Cl)nc1-c1c[nH]c(C(=O)N[C@H](CO)c2cccc(Cl)c2)c1` [VX-11e] the optimal doses [1] was 20 µM, the “VSV-LV mediated transduction efficiency increase” value ([1]; VSV-LV, 20 µM VX-11e, average, three donors) was “up to 1.8 fold” and the “AAV6 mediated transduction efficiency increase” value [2] was “up to 2.1 fold”.
`CC(C)Nc1cc(-c2c[nH]c(C(=O)N[C@H](CO)c3cccc(Cl)c3)c2)c(Cl)cn1` [ulixertinib] showed an optimal doses [1] of 5 µM.
With Deucravacitinib the “increase in CAR expression” value ([1]; CD4-LV, CD4 T cells, average, three donors) was “up to 1.7 fold”, the “increase in CAR expression” value ([1]; CD8-LV, CD8 T cells, average, three donors) was at most 3.6 fold and the optimal dose ([1]; treatment of cells for 24 hours, CAR expression after LV transduction (one donor)) was 400 nM.
